Reference: patent publication US6613880B2, “Pipecolic acid derivatives of proline threonine amides useful for the treatment of rheumatoid arthritis” (Pharmacia Corporation, priority 1995, dated 2003)
Square brackets hold non-standard residues; d marks the D form. Peptide text beside a SMILES is read from it. * marks the point of attachment. ξ: configuration not given here. Butanoyl(3S-cHex) = C[C@@H](CC(=O)*)C1CCCCC1; Propanoyl(3-cHex) = O=C(CCC1CCCCC1)*; Thr(3ξ) = CC(O)[C@H](N)C(=O)O; Leu(ol) = CC(C)C[C@H](N)CO; Pip = O=C(O)[C@@H]1CCCCN1; NHPr = CCCN*

target: T1, DR(αβ1*0401) molecules (DR4) (Homo sapiens, UniProt P01903+P01911, A100K/A169T/F76Y/I96L/K127E/L162R/M171V/N62H/P40V/Q125Y/R42H/S133A/S149N/S66Y/V115G/V209L/W38E); test: Competitive Binding for DR4 (Competition Capture ELISA); conditions: competition with 50 nM biotinylated ML37-49 peptide for immunoaffinity purified DRB1*0401, pH 5.5, overnight at 37° C.
T1 construct: made in house
Protocol: Competitive Binding for DR4 (Competition Capture ELISA)
DR(αβ1*0401) molecules are affinity purified with L243 monoclonal antibody (hybridoma obtained from ATCC) using a modification of a published procedure (Gorga, J. C., et al., 1991. Res. Immunol. 142:401-407.). Duplicate samples of immunoaffinity purified DRB1*0401 molecules (0.5 μg/well) are incubated overnight at 37° C. with 50 nM biotinylated ML37-49 peptide in the presence or absence of 1 nM to 100 μM competitor peptides in 96-well polypropylene microtiter plates (Costar, Cambridge, Mass.). All dilutions are made in phosphate buffered saline, pH 5.5 containing 1% octaglucoside (Boehringher Mannheim). LB3.1 antibody (obtained from J. Strominger, Cambridge, Mass.) is plated onto flat-bottom 96-well polystyrene microtiter plates (Falcon, Becton-Dickinson, Mountainview, Calif.) in 0.1 M carbonate coating buffer, pH 9.6 overnight at 4° C. Antibody coated microtiter plates are blocked with 1% Carnation nonfat milk for 1 hr at room temperature. The plates are washed 3 times with PBS containing 0.05% Tween 20 (Biorad, Hercules, Calif.). The class II/peptide mixtures are added, incubated for 1 hr at 37° C., and washed as described above. Extravidin conjugated horseradish peroxidase (1:1000, Sigma Chemicals) is added to the wells and incubated for 30-60 min at 37° C. The plates are washed again, then incubated with o-phenylenediamine dihydrochloride and H2O2 (Sigma Chemicals, St. Louis, Mo.) in 0.5 M phosphate-citrate buffer, pH 5.0. The absorbance of each well is read at 450 nm.

IC50 [nM] | Compound
30 | CCCNC(=O)[C@@H](NC(=O)[C@@H]1CCCN1C(=O)[C@H](CC(=O)O)NC(=O)[C@@H]1CCCCN1C(=O)[C@@H](NC(=O)C[C@H](C)C1CCCCC1)C(C)C)C(C)O (stereo partly drawn) [Example 1, (S)-CBA-Val-Pec-Asp-Pro-Thr-propylamide] ({Butanoyl(3S-cHex)}-V[Pip]DP[Thr(3ξ)]-NHPr)
259 | CCCNC(=O)[C@@H](NC(=O)[C@@H]1CCCN1C(=O)[C@H](CC(=O)O)NC(=O)[C@@H]1CCCCN1C(=O)[C@H](CCCCN)NC(=O)CCC1CCCCC1)[C@@H](C)O [Example 3, CPA-Lys-Pec-Asp-Pro-Thr-propylamide] ({Propanoyl(3-cHex)}-K[Pip]DPT-NHPr)
116 | CC(C)C[C@@H](CO)NC(=O)[C@@H](NC(=O)[C@@H]1CCCN1C(=O)[C@H](CC(=O)O)NC(=O)[C@@H]1CCCCN1C(=O)[C@H](CCCCN)NC(=O)C[C@H](C)C1CCCCC1)[C@@H](C)O [Example 4, (S)-CBA-Lys-Pec-Asp-Pro-Thr-leucinol] ({Butanoyl(3S-cHex)}-K[Pip]DPT[Leu(ol)])
289 | (S)-CBA-Lys-Pec-Asp-Pro-Thr-propylamide [Example 2]
